The record followed here is patent publication US20250208149A1, “WEE1 COMPOUND FOR TREATING UTERINE SEROUS CARCINOMA” (Recurium IP Holdings, LLC, priority 2022, published 2025).

Molecules are shown by their SMILES.

Common to all, as to test: ZN-c3 dose response, percent cell density (cell titer glow), PPP2R1A siRNA vs scrambled control
Holding throughout (format): cell-based

The test system of one assay is Hs578T cells. The settings on record: Homo sapiens, Hs-578T, 72 h. The procedure:
FIG. 5 depicts the percent cell density of Hs578T (a breast cancer cell line) cells after treatment with a 10-point dose response of ZN-c3 for 72 hours, comparing cells transfected with siRNA to PPP2R1A against those transfected with a scrambled control siRNA. Percent cell density is calculated using cell titer glow analysis. PPP2R1A siRNA transfected cells have approximately 2.4-fold increase in sensitivity to ZN-c3 (TABLE 3).
(§1) The effect of PPP2R1A knockdown on influencing cancer cell susceptibility to ZN-c3 was evaluated. Various cancer cell lines were transfected with PPP2R1A siRNA or control scrambled siRNA and the cells were treated with a 10 point dose response of ZN-c3 for 72 hours. Percent cell density was calculated using cell titer glow analysis. The PPP2R1A siRNA targeted the following bases Chr.19: 52189802-52226425. SiRNA transfection was started 48 hours prior to treatment with ZN-c3. […]
A breast cancer cell line Hs578T was treated with PPP2R1A siRNA or control siRNA and transfected cells were assessed for sensitivity to ZN-c3 by measurement of reduction in percent cell density (FIG. 5). PPP2R1A siRNA mediated knockdown of PPP2R1A was evaluated by comparison of PPP2R1A expression in conditions treated with siCTRL and siPPPR12A (FIG. 6).

The next assay has as its system H1975 cells. The settings on record: Homo sapiens, NCI-H1975, 72 h. The procedure: FIG. 3 depicts the percent cell density of H1975 (a second non-small cell lung cancer cell line) cells after treatment with a 10-point dose response of ZN-c3 for 72 hours, comparing cells transfected with siRNA to PPP2R1A against those transfected with a scrambled control siRNA. Percent cell density is calculated using cell titer glow analysis. PPP2R1A siRNA transfected cells have approximately 3.7-fold increase in sensitivity to ZN-c3 (TABLE 2).
as §1
A second non-small cell lung cancer cell line H1975 was treated with PPP2R1A siRNA or control siRNA and transfected cells were assessed for sensitivity to ZN-c3 by measurement of reduction in percent cell density (FIG. 3). PPP2R1A siRNA mediated knockdown of PPP2R1A was evaluated by comparison of PPP2R1A expression in conditions treated with siCTRL and siPPPR12A (FIG. 4).

The next assay has as its system HEC1B cells. The settings on record: Homo sapiens, HEC-1B, 72 h, HEC1B cells (PPP2R1A W257L; L429F). The procedure: (§2) FIG. 11 depicts the percent cell density of HEC1B and HEC-59 (endometrial cancer cell lines) cells after treatment with a 10-point dose response of ZN-c3 for 72 hours, comparing cells transfected with siRNA to PPP2R1A against those transfected with a scrambled control siRNA. […] HEC-59 is PPP2R1A wild-type. Percent cell density is calculated using cell titer glow analysis. HEC1B PPP2R1A siRNA transfected cells have approximately 1.4-fold increase in sensitivity to ZN-c3 while HEC-59 PPP2R1A siRNA transfected cells have approximately 2.5 fold increase in sensitivity to ZN-c3 (TABLE 6).
(§3) The effect of PPP2R1A knockdown on influencing cancer cell susceptibility to ZN-c3 was evaluated. Various cancer cell lines were transfected with PPP2R1A siRNA or control scrambled siRNA and the cells were treated with a 10 point dose response of ZN-c3 for 72 hours. Percent cell density was calculated using cell titer glow analysis. The PPP2R1A siRNA targeted the following bases Chr.19: 52189802-52226425. SiRNA transfection was started 48 hours prior to treatment with ZN-c3. The ZN-c3 dose response evaluation included ZN-c3 dosages at […].
(§4) Endometrial cancer cell lines HEC1B and HEC-59 were treated with PPP2R1A siRNA or control siRNA and transfected cells were assessed for sensitivity to ZN-c3 by measurement of reduction in percent cell density (FIG. 11). PPP2R1A siRNA mediated knockdown of PPP2R1A was evaluated by comparison of PPP2R1A protein expression via western blot in conditions treated with siCTRL and siPPPR12A with vinculin used as a control (FIG. 12). Knockdown of PPP2R1A by siRNA was limited in HEC1B cells, due to the missense mutations W257L and L429F within PPP2R1A in this cell line.

A further assay has as its system HEC-59 cells. The settings on record: 72 h, HEC-59 cells (PPP2R1A wild-type). The procedure:
as §2, §3, §4

In a further assay the test system is SKOV3 cells. Conditions: Homo sapiens, SK-OV-3, 72 h. The procedure:
FIG. 9 depicts the percent cell density of SKOV3 (an ovarian cancer cell line) cells after treatment with a 10-point dose response of ZN-c3 for 72 hours, comparing cells transfected with siRNA to PPP2R1A against those transfected with a scrambled control siRNA. Percent cell density is calculated using cell titer glow analysis. PPP2R1A siRNA transfected cells have approximately 2.7-fold increase in sensitivity to ZN-c3 (TABLE 5).
as §3
An ovarian cell line SKOV3 was treated with PPP2R1A siRNA or control siRNA and transfected cells were assessed for sensitivity to ZN-c3 by measurement of reduction in percent cell density (FIG. 9). PPP2R1A siRNA mediated knockdown of PPP2R1A was evaluated by comparison of PPP2R1A expression in conditions treated with siCTRL and siPPPR12A (FIG. 10).

The next assay concerns SW620 cells. Conditions: Homo sapiens, SW-620, 72 h. The procedure: FIG. 7 depicts the percent cell density of SW620 (a colorectal cancer cell line) cells after treatment with a 10-point dose response of ZN-c3 for 72 hours, comparing cells transfected with siRNA to PPP2R1A against those transfected with a scrambled control siRNA. Percent cell density is calculated using cell titer glow analysis. PPP2R1A siRNA transfected cells have approximately 1.9-fold increase in sensitivity to ZN-c3 (TABLE 4).
as §1
A colorectal cancer cell line SW620 was treated with PPP2R1A siRNA or control siRNA and transfected cells were assessed for sensitivity to ZN-c3 by measurement of reduction in percent cell density (FIG. 7). PPP2R1A siRNA mediated knockdown of PPP2R1A was evaluated by comparison of PPP2R1A expression in conditions treated with siCTRL and siPPPR12A (FIG. 8).

Take `C=CCn1c(=O)c2cnc(Nc3ccc(N4CCN(C)CC4)cc3)nc2n1-c1ccc2c(n1)[C@@](O)(CC)CC2` [ZN-c3, (R)-2-allyl-1-(7-ethyl-7-hydroxy-6,7-dihydro-5H-cyclopenta[b]pyridin-2-yl)-6-((4-(4-methylpiperazin-1-yl)phenyl)amino)-1,2-dihydro-3H-pyrazolo[3,4-d]pyrimidin-3-one]: the EC50 in the assay with Hs578T cells (siCTRL) is 0.17 µM; with Hs578T cells (siPPP2R1A) it was 0.0713 µM; in the assay with H1975 cells (siCTRL) it was 0.559 µM; in the assay with H1975 cells (siPPP2R1A), 0.15 µM; in the assay on HEC1B cells (siCTRL), 0.707 µM; in the assay on HEC1B cells (siPPP2R1A), 0.49 µM. Further, the EC50 was found to be 1.04 µM with HEC-59 cells (siCTRL); 0.436 µM in the assay with HEC-59 cells (siPPP2R1A); 0.48 µM with SKOV3 cells (siCTRL); 0.18 µM in the assay on SKOV3 cells (siPPP2R1A); 0.45 µM in the assay with SW620 cells (siCTRL); 0.236 µM with SW620 cells (siPPP2R1A).
